Test [1] can be described thus: Cyclooxygenase enzyme assay (TLC method), COX-1. As to conditions: second column headed COX-2; preincubation 90-120 min, [1-14C] arachidonic acid 50 μM; read-out: Inhibition of Cyclooxygenase Activity IC50 COX-2. It counts as biochemical, ovine. How it is done: Cyclooxygenase activity of ovine COX-1 (Oxford Biomedical Research Inc.) and human recombinant COX-2 (Oxford Biomedical Research Inc.) was assayed by a thin layer chromatography (TLC) method as follows. All inhibitors were dissolved in dimethyl sulfoxide to a stock solution of 5mM. Human recombinant COX-2 (3 units) or ovine COX-1 (15 units) was incubated with inhibitors at several concentrations in a solution containing 100 mM Tris-HCl, pH7.8, 500 μM phenol and hematin for 90 to 120 minutes at room temperature (24° C.). In controls, equal volumes of DMSO without drug were added to the incubation mixture. After incubation for 90-120 minutes, [1-^14C] arachidonic acid (50 μM, 51 mCi/mmol) (DuPont NEN) was added and incubated at 37° C. for 2 minutes. The reaction was terminated by extraction with 1 ml of ethyl acetate. The ethyl acetate layer was transferred into a fresh tube and evaporated to dryness in a Speedvac vacuum dryer. The contents of the tubes were reconstituted in […] of ethyl acetate and spotted on a TLC plate (J. T. Baker, Philipsburg, N.J.) and developed in a mobile phase containing chloroform/methanol (95:5) at 4° C. Radiolabeled prostanoid compounds (the products of COX enzymatic reaction with radiolabeled arachidonic acid substrate) were quantitated with a radioactivity scanner (Fuji, Phosphorimager). […]

The test system of the next test is DLD-1 cells. Description: Soft agar assay, colony growth. As to conditions: highest concentration tested (range 10 μM to 75 μM), one dose, stained 20 days later, FIG. 1. In kind it is cell-based, human. How it is done: The Example 1 and 24 compounds were compared to the COX-2 inhibitor celecoxib in inhibiting the growth of DLD-1 cells in soft agar. DLD-1 cells are human colorectal carcinoma cells that overexpress COX-2. DLD-1 cells grow in soft agar and form tumors in nude mice. The soft agar assay was performed as follows. A layer of bottom agar ([…]) was placed onto 60 mm^2 tissue culture dishes. The tumor cells were trypsinized from normal growth flasks while in exponential growth. The cells were counted by using a hemacytometer and 1.0×10^5 cells were placed into the top agar mixture containing growth medium, 4% noble agar and various concentrations of drugs. The concentration range was normally between 10 μM to 75 μM. The cells were not refed during the assay system; therefore, the cells were treated with one dose of the agents. The plates were stained 20 days later with a 0.05% (w/v) nitroblue tetrazolium solution (which stains only viable cells) for 48 hours. The results are shown in FIG. 1, the y-axis being the percent of cell colonies remaining in comparison to untreated control cells.

Usually IC50 stands for the concentration that gives 50% inhibition. On to `NS(=O)(=O)c1ccc(N2N=C(C(F)(F)F)CC2c2ccccc2)cc1` (stereo not shown) [Example 1, 1-(4-Sulfamylphenyl)-3-trifluoromethyl-5-phenyl-2-pyrazoline], for which the IC50 in test [1] was below 100 µM. In the test on DLD-1 cells, the “inhibition of DLD-1 cell colony growth in soft agar” value turned out to be 100%.

In the case of `NS(=O)(=O)c1ccc(N2N=C(C(F)(F)F)CC2c2c[nH]c3ccccc23)cc1` (stereo not shown) [Example 24, 1-(4-Sulfamylphenyl)-3-trifluoromethyl-5-(3-indolyl)-2-pyrazoline], the IC50 in test [1] is below 100 µM. Besides, the “inhibition of DLD-1 cell colony growth in soft agar” value in the test on DLD-1 cells was determined as 100%.

Values taken from patent publication USRE39681E1, “1-(4-sulfamyaryl)-3-substituted-5-aryl-2-pyrazolines and inhibitors of cyclooxygenase-2” (Temple University - of the Commonwealth System of Higher …, priority 1999, dated 2007).
